Laboratory results taken from patent US8592448B2 (OSI Pharmaceuticals, LLC, priority 2008, dated 2013).
pIC50: −log10 of the molar value.

Tests used:
MKN45 cells = assay: MKN45 cell proliferation assay (CellTiter-Glo); assay type: cell-based; conditions: Homo sapiens, MKN-45, 72 h, MKN45 cell line, 3 days incubation, at least duplicate experiments, read-out: Prolif. IC50
Method: The effect of inhibitors on the proliferation of MKN45 cells was determined using the following protocol. MKN45 cells were plated in Corning 3917 96-well white tissue culture treated plates in growth medium (RPMI, 10% FCS) at a density of 5000 cells/well in a total volume of 135 μL and incubated at 37° C., 5% CO2, 95% humidity overnight. The following day, one-tenth volume of a 10× concentration of compounds was added to the wells in an 8-point dilution series. The dilution series was composed of an initial 1:5 dilution of a 10 mM stock of compound in DMSO, followed by serial 1:4 dilutions in DMSO, then a 1:20 dilution in growth medium prior to the 1:10 dilution into the cell plate. Final DMSO concentration on the cells was 0.1%, there were control wells treated with both 0.1% DMSO and no DMSO. The typical dilution range is 10 μM to 0.6 nM. Once the compound was added to the cells, plates were incubated for 3 days at 37° C., 5% CO2 at 95% humidity. On the third day, after allowing all cells and reagents to come to room temperature, 25 μL of CellTiter-Glo reagent (Promega # G7573) was added to the wells. Plates were shaken on a platform for 10 minutes prior to reading luminescence for 0.1 seconds. The signal of the control wells was taken as 100% growth and growth inhibition was expressed as percent of control. IC50 values were determined from the percent of control data using a standard four-parameter model.
(§1) The IC50 values of exemplary compounds of the present invention determined in a cell proliferation assay using the MKN45 cell line according to the procedures described herein in at least duplicate experiments are abbreviated as follows and are shown in Table 2: A, IC50≦0.1 μM; B, 0.1 μM<IC50≦1 μM; C, 1 μM<IC50≦10 μM; D, IC50>10 μM; ND, not determined. The Example # of Table 2 corresponds to the compound example number as illustrated in the Examples section.

phosphorylated c-MET = target: T1, phosphorylated c-MET (Homo sapiens, UniProt P08581); assay: c-MET cell mechanistic assay (phosphorylated c-MET in MKN45 cells); assay type: cell-based; conditions: MKN45 cell line, four hours incubation, phosphorylated c-MET levels, at least duplicate experiments; read-out: Met mech IC50
T1 construct: endogenous in cells; host or cells: MKN45
Method: The cellular activity of the compounds of the present invention may be determined by the following procedure. MKN45 cells were plated in Falcon 3072 96-well plates in growth media (RPMI, 10% FBS, 1% L-glutamine) at a density of 5000 cells/well and incubated at 37° C., 5% CO2 overnight. The following day, one-tenth volume of a 10× concentration of compounds was added to the wells in a 6-point dilution series. The dilutions series was composed of an initial 1:5 dilution in DMSO, followed by a 1:10 dilution in growth media, for a final DMSO concentration on cells of 0.5%. Control wells were treated with 0.5% DMSO. The typical range of dilution was 10 μM to 3 nM. Once compound was added to the cells, plates were incubated for four hours at 37° C., 5% CO2. Plates were then washed in PBS, and lysed in triton-based lysis buffer. Lysates were transferred to a precoated capture plate made by Biosource (Cat # KH00281). The phosphorylated c-MET levels were measured by incubating with a rabbit polyclonal antibody against phosphorylated c-MET ([pYpYpY1230/1234/1235]) followed by an anti-rabbit antibody conjugated to HRP. Signal was measured on a Wallac Victor plate reader at 450 nm. The DMSO signal of the control wells was defined as 100% and the percent of inhibition of phosphorylated c-Met was expressed as percent of control. IC50 values were determined from the percent of control data using a standard four-parameter model.
as §1, with “in a c-MET cell mechanistic” for “in a cell proliferation”, “c-MET cell mechanistic assay using” for “a cell proliferation assay using”, “in Table 3: A, IC50≦0.1” for “in Table 2: A, IC50≦0.1”, “of Table 3 corresponds to” for “of Table 2 corresponds to”

T1 sequence (P08581 25-1390): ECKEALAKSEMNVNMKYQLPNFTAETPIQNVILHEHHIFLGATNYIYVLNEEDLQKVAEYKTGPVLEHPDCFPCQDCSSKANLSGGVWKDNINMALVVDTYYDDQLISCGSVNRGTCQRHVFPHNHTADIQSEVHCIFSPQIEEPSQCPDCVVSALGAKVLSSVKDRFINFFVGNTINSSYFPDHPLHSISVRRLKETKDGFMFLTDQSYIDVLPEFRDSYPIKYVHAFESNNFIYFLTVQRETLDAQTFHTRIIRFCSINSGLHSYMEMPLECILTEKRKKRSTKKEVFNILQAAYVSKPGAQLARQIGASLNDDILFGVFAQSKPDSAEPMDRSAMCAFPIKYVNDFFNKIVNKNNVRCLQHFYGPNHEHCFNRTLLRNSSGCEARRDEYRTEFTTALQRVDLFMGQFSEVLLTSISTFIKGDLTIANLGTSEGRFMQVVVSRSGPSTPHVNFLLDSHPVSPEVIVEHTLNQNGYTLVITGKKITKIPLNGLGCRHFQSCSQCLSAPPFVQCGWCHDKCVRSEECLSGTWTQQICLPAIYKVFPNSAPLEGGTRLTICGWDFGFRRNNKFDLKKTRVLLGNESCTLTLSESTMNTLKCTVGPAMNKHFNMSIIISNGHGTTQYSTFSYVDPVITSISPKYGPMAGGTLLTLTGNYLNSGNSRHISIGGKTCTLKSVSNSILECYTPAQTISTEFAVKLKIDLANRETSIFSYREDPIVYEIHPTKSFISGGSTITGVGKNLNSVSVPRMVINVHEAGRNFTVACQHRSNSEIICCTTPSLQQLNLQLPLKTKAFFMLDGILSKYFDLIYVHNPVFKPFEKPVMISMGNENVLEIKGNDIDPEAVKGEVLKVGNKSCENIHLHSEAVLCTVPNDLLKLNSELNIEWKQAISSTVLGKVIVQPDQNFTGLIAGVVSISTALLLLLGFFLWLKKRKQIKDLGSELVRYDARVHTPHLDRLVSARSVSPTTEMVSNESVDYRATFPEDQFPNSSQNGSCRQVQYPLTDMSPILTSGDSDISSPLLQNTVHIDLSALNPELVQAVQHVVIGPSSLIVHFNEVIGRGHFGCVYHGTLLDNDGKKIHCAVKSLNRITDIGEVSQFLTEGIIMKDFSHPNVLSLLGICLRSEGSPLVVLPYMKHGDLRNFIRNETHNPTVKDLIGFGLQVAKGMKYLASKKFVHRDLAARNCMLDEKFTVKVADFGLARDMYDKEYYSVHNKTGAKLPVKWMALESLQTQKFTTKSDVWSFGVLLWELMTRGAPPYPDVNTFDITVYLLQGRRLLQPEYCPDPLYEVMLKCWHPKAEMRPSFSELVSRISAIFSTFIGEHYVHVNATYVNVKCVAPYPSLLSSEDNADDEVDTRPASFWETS

Q: Which results are given for `CC(c1c(Cl)ccc(F)c1Cl)c1c[nH]c2ncc(-c3ccc(C(=O)N(C)C)cc3)cc12` (stereo not shown) [Example 3, 4-{3-[1-(2,6-Dichloro-3-fluorophenyl)ethyl]-1H-pyrrolo[2,3-b]pyridin-5-yl}-N,N-dimethylbenzamide]?
A: pIC50 (MKN45 cells): 6.00 to 7.00; pIC50 (phosphorylated c-MET): 6.00 to 7.00

Q: With `CC(c1c(Cl)ccc(F)c1Cl)c1c[nH]c2ncc(-c3ccc(C(=O)N4CCCC4)cc3)cc12` (stereo not shown) [Example 4, (4-{3-[1-(2,6-Dichloro-3-fluorophenyl)ethyl]-1H-pyrrolo[2,3-b]pyridin-5-yl}phenyl)pyrrolidin-1-ylmethanone] as the compound, how does the pIC50 (MKN45 cells) read?
A: 6.00 to 7.00

Q: And the pIC50 (phosphorylated c-MET)?
A: 6.00 to 7.00

Q: What does the source list for `CNC(=O)c1ccc(-c2cnc3[nH]cc(C(C)c4c(Cl)ccc(F)c4Cl)c3c2)cc1` (stereo not shown) [Example 5, 4-{3-[1-(2,6-Dichloro-3-fluorophenyl)ethyl]-1H-pyrrolo[2,3-b]pyridin-5-yl}-N-methylbenzamide]?
A: pIC50 (MKN45 cells): 6.00 to 7.00; pIC50 (phosphorylated c-MET): 6.00 to 7.00

Q: With `COCCNC(=O)c1ccc(-c2cnc3[nH]cc(C(C)c4c(Cl)ccc(F)c4Cl)c3c2)cc1` (stereo not shown) [Example 6, 4-{3-[1-(2,6-Dichloro-3-fluorophenyl)ethyl]-1H-pyrrolo[2,3-b]pyridin-5-yl}-N-(2-methoxyethyl)benzamide] as the compound, how does the pIC50 (MKN45 cells) read?
A: 5.00 to 6.00

Q: What about the pIC50 (phosphorylated c-MET) of the same compound?
A: 6.00 to 7.00

Q: With `CC(c1c(Cl)ccc(F)c1Cl)c1c[nH]c2ncc(-c3ccc(C(=O)NCCN4CCOCC4)cc3)cc12` (stereo not shown) [Example 7, 4-{3-[1-(2,6-Dichloro-3-fluorophenyl)ethyl]-1H-pyrrolo[2,3-b]pyridin-5-yl}-N-(2-morpholin-4-ylethyl)benzamide] as the compound, how does the pIC50 (MKN45 cells) read?
A: 6.00 to 7.00

Q: What about the pIC50 (phosphorylated c-MET) of the same compound?
A: 6.00 to 7.00

Q: With `CC(c1c(Cl)ccc(F)c1Cl)c1c[nH]c2ncc(-c3ccc(C(=O)N4CCOCC4)cc3)cc12` (stereo not shown) [Example 13, (4-{3-[1-(2,6-Dichloro-3-fluorophenyl)ethyl]-1H-pyrrolo[2,3-b]pyridin-5-yl}phenyl)morpholin-4-ylmethanone] as the compound, how does the pIC50 (MKN45 cells) read?
A: 6.00 to 7.00

Q: And the pIC50 (phosphorylated c-MET)?
A: 6.00 to 7.00

Q: Which results are given for `CC(c1c(Cl)ccc(F)c1Cl)c1c[nH]c2ncc(-c3ccc(C(=O)N4CCN(C)CC4)cc3)cc12` (stereo not shown) [Example 15, (4-{3-[1-(2,6-Dichloro-3-fluorophenyl)ethyl]-1H-pyrrolo[2,3-b]pyridin-5-yl}phenyl)-(4-methylpiperazin-1-yl)methanone]?
A: pIC50 (MKN45 cells): 6.00 to 7.00; pIC50 (phosphorylated c-MET): ≥ 7.00

Q: How did the pIC50 (MKN45 cells) turn out when `CC(c1c(Cl)ccc(F)c1Cl)c1c[nH]c2ncc(-c3ccc(N)cc3)cc12` (stereo not shown) [Example 18, 4-{3-[1-(2,6-Dichloro-3-fluorophenyl)ethyl]-1H-pyrrolo[2,3-b]pyridin-5-yl}phenylamine] was run?
A: 6.00 to 7.00

Q: What about the pIC50 (phosphorylated c-MET) of the same compound?
A: 6.00 to 7.00

Q: With `CC(c1c(Cl)ccc(F)c1Cl)c1c[nH]c2ncc(-c3ccccc3)cc12` (stereo not shown) [Example 19, 3-[1-(2,6-Dichloro-3-fluorophenyl)ethyl]-5-phenyl-1H-pyrrolo[2,3-b]-pyridine] as the compound, how does the pIC50 (MKN45 cells) read?
A: < 5.00

Q: What about the pIC50 (phosphorylated c-MET) of the same compound?
A: 5.00 to 6.00

Q: What does the source list for `CC(c1c(Cl)ccc(F)c1Cl)c1c[nH]c2ncc(-c3ccc(C(=O)NCCN(C)C)cc3)cc12` (stereo not shown) [Example 20, 4-{3-[1-(2,6-Dichloro-3-fluorophenyl)ethyl]-1H-pyrrolo[2,3-b]pyridin-5-yl}-N-(2-dimethylaminoethyl)benzamide]?
A: pIC50 (MKN45 cells): 6.00 to 7.00; pIC50 (phosphorylated c-MET): 6.00 to 7.00

Q: With `CC(c1c(Cl)ccc(F)c1Cl)c1c[nH]c2ncc(-c3ccc(S(=O)(=O)N(C)C)cc3)cc12` (stereo not shown) [Example 22, 4-{3-[1-(2,6-Dichloro-3-fluorophenyl)ethyl]-1H-pyrrolo[2,3-b]pyridin-5-yl}-N,N-dimethylbenzenesulfonamide] as the compound, how does the pIC50 (MKN45 cells) read?
A: 5.00 to 6.00

Q: What about the pIC50 (phosphorylated c-MET) of the same compound?
A: 5.00 to 6.00

Q: How did the pIC50 (MKN45 cells) turn out when `CNS(=O)(=O)c1ccc(-c2cnc3[nH]cc(C(C)c4c(Cl)ccc(F)c4Cl)c3c2)cc1` (stereo not shown) [Example 23, 4-{3-[1-(2,6-Dichloro-3-fluorophenyl)ethyl]-1H-pyrrolo[2,3-b]pyridin-5-yl}-N-methylbenzenesulfonamide] was run?
A: 5.00 to 6.00

Q: What about the pIC50 (phosphorylated c-MET) of the same compound?
A: 6.00 to 7.00

Q: What does the source list for `CC(c1c(Cl)ccc(F)c1Cl)c1c[nH]c2ncc(-c3ccc(C(=O)NCCO)cc3)cc12` (stereo not shown) [Example 24, 4-{3-[1-(2,6-Dichloro-3-fluorophenyl)ethyl]-1H-pyrrolo[2,3-b]pyridin-5-yl}-N-(2-hydroxyethyl)benzamide]?
A: pIC50 (MKN45 cells): 6.00 to 7.00; pIC50 (phosphorylated c-MET): 6.00 to 7.00

Q: `CC(c1c(Cl)ccc(F)c1Cl)c1c[nH]c2ncc(-c3cn[nH]c3)cc12` (stereo not shown) [Example 26, 3-[1-(2,6-Dichloro-3-fluorophenyl)-ethyl]-5-(1H-pyrazol-4-yl)-1H-pyrrolo[2,3-b]pyridine] was tested. Which pIC50 (MKN45 cells) did it give?
A: 6.00 to 7.00

Q: And the pIC50 (phosphorylated c-MET)?
A: 6.00 to 7.00

Q: `CC(c1c(Cl)ccc(F)c1Cl)c1c[nH]c2ncc(-c3cnn(C)c3)cc12` (stereo not shown) [Example 27, 3-[1-(2,6-Dichloro-3-fluorophenyl)-ethyl]-5-(1-methyl-1H-pyrazol-4-yl)-1H-pyrrolo[2,3-b]pyridine] was tested. Which pIC50 (MKN45 cells) did it give?
A: 6.00 to 7.00

Q: What about the pIC50 (phosphorylated c-MET) of the same compound?
A: ≥ 7.00

Q: `CC(c1c(Cl)ccc(F)c1Cl)c1c[nH]c2ncc(-c3cnn(C4CCN(C(=O)N(C)C)CC4)c3)cc12` (stereo not shown) [Example 28, 4-(4-{3-[1-(2,6-Dichloro-3-fluorophenyl)ethyl]-1H-pyrrolo[2,3-b]pyridin-5-yl}-pyrazol-1-yl)-piperidine-1-carboxylic acid dimethylamide] was tested. Which pIC50 (MKN45 cells) did it give?
A: ≥ 7.00

Q: What about the pIC50 (phosphorylated c-MET) of the same compound?
A: ≥ 7.00

Q: `CC(c1c(Cl)ccc(F)c1Cl)c1c[nH]c2ncc(-c3cnn(C4CCN(CC(F)(F)F)CC4)c3)cc12` (stereo not shown) [Example 29, 3-[1-(2,6-Dichloro-3-fluorophenyl)ethyl]-5-{1-[1-(2,2,2-trifluoroethyl)-piperidin-4-yl]-1H-pyrazol-4-yl}-1H-pyrrolo[2,3-b]pyridine] was tested. Which pIC50 (MKN45 cells) did it give?
A: 6.00 to 7.00

Q: And the pIC50 (phosphorylated c-MET)?
A: 6.00 to 7.00

Q: What does the source list for `CC(c1c(Cl)ccc(F)c1Cl)c1c[nH]c2ncc(-c3cnn(C(C)C)c3)cc12` (stereo not shown) [Example 30, 3-[1-(2,6-Dichloro-3-fluorophenyl)ethyl]-5-(1-isopropyl-1H-pyrazol-4-yl)-1H-pyrrolo[2,3-b]pyridine]?
A: pIC50 (MKN45 cells): 6.00 to 7.00; pIC50 (phosphorylated c-MET): ≥ 7.00

Q: What does the source list for `CC(c1c(Cl)ccc(F)c1Cl)c1c[nH]c2ncc(-c3cnn(CCN4CCOCC4)c3)cc12` (stereo not shown) [Example 31, 3-[1-(2,6-Dichloro-3-fluorophenyl)ethyl]-5-[1-(2-morpholin-4-ylethyl)-1H-pyrazol-4-yl]-1H-pyrrolo[2,3-b]pyridine]?
A: pIC50 (MKN45 cells): ≥ 7.00; pIC50 (phosphorylated c-MET): ≥ 7.00

Q: `CC(c1c(Cl)ccc(F)c1Cl)c1c[nH]c2ncc(C3=CCNCC3)cc12` (stereo not shown) [Example 32, 3-[1-(2,6-Dichloro-3-fluorophenyl)-ethyl]-5-(1,2,3,6-tetrahydropyridin-4-yl)-1H-pyrrolo[2,3-b]pyridine] was tested. Which pIC50 (MKN45 cells) did it give?
A: 6.00 to 7.00

Q: What about the pIC50 (phosphorylated c-MET) of the same compound?
A: 6.00 to 7.00

Q: With `CC(c1c(Cl)ccc(F)c1Cl)c1c[nH]c2ncc(C3=CCN(C(N)=O)CC3)cc12` (stereo not shown) [Example 33, 4-{3-[1-(2,6-Dichloro-3-fluorophenyl)ethyl]-1H-pyrrolo[2,3-b]pyridin-5-yl}-3,6-dihydro-2H-pyridine-1-carboxamide] as the compound, how does the pIC50 (MKN45 cells) read?
A: 6.00 to 7.00

Q: And the pIC50 (phosphorylated c-MET)?
A: ≥ 7.00

Q: `CC(c1c(Cl)ccc(F)c1Cl)c1c[nH]c2ncc(C3=CCN(C(=O)N(C)C)CC3)cc12` (stereo not shown) [Example 36, 4-{3-[1-(2,6-Dichloro-3-fluorophenyl)-ethyl]-1H-pyrrolo[2,3-b]pyridin-5-yl}-3,6-dihydro-2H-pyridine-1-carboxylic acid dimethylamide] was tested. Which pIC50 (MKN45 cells) did it give?
A: 6.00 to 7.00

Q: And the pIC50 (phosphorylated c-MET)?
A: 6.00 to 7.00

Q: Which results are given for `CC(c1c(Cl)ccc(F)c1Cl)c1c[nH]c2ncc(C3=CCN(C=O)CC3)cc12` (stereo not shown) [Example 38, 4-{3-[1-(2,6-Dichloro-3-fluorophenyl)ethyl]-1H-pyrrolo[2,3-b]pyridin-5-yl}-3,6-dihydro-2H-pyridine-1-carbaldehyde]?
A: pIC50 (MKN45 cells): 6.00 to 7.00; pIC50 (phosphorylated c-MET): 6.00 to 7.00
